We go through 14 molecules from US10611740B2, “Aryl dihydro-2H-benzo[b][1,4]oxazine sulfonamide and related compounds for use as agonists of RORγ and the treatment of disease” (Lycera Corporation, priority 2015, dated 2020).

In one test the target is T1, Gal4-RORγ-LBD (Homo sapiens, UniProt P51449).
T1 construct: expressed in transfected cells; host or cells: HEK-293 cells (pcDNA3.1neo plasmid)
T1 sequence (P51449 269-508 limits assumed): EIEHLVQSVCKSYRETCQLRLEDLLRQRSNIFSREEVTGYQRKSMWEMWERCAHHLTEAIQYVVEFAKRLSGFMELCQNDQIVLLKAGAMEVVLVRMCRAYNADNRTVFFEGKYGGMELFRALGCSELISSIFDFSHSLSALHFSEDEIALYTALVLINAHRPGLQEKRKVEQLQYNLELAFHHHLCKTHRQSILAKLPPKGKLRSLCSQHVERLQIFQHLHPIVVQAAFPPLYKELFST
Nature of the test: Gal4-RORγ Luciferase Reporter Assay in HEK-293T Cells. The test is classed as cell-based. As to conditions: HEK-293 cells. Put shortly: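 In transfected HEK-293 cells (Gal4-RORγ-LBD, Gal4-luciferase), test agents with 2 μM ursolic acid were incubated overnight at 37 °C before luminescent detection. Values are relative to the ursolic-acid-free, compound-free signal (100).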

For another test, the target named is T2, RORγ-LBD (Homo sapiens, UniProt P51449).
T2 construct: made in house; host or cells: SF9 cells (baculovirus)
T2 sequence (P51449 269-508 limits assumed): T1 sequence (P51449 269-508 limits assumed)
As to the kind of experiment: RORγ-Ligand Binding Domain (LBD) TR-FRET Assay.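 For TR-FRET Assay Max Response: 665/615 nm ratio relative to signal without ursolic acid or compound set at 100.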 The test is classed as biochemical. Put shortly:
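Lysate from SF9 cells expressing His-RORγ-LBD is diluted to about 3 nM final in 50 mM Tris pH 7.0 assay buffer. A biotin-tagged SRC1 LXXLL peptide goes in at 200 nM final, plus ursolic acid at 2 μM final. Test compounds carry 1% DMSO final; signal read by TR-FRET.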

Setting [1] is: luciferase reporter, with 2 μM ursolic acid.

The EC50 is the concentration needed to bring the measured effect to its halfway point.

Turning to `CN(CCC(=O)O)C(=O)NC[C@H]1CN(S(=O)(=O)c2cccc(C(F)(F)F)c2)c2cc(-c3cc(F)ccc3F)ccc2O1` [Compound 23R, (S)-3-(3-((6-(2,5-difluorophenyl)-4-((3-(trifluoromethyl)phenyl)-sulfonyl)-3,4-dihydro-2H-benzo[b][1,4]oxazin-2-yl)methyl)-1-methylureido)propanoic acid], on Gal4-RORγ-LBD (setting [1]), the EC50 was in the range of 500 to 5000 nM and the “Gal4-RORγ Assay Max Response” value was “** (The symbol “**” indicates a value in the range of greater than 90 to 150)”. In addition, on RORγ-LBD, the EC50 is below 500 nM and the “TR-FRET Assay Max Response” value was “**** (The symbol “****” indicates a value greater than 200)”.
On to `O=C(O)CNC(=O)NCC[C@H]1CN(S(=O)(=O)c2cccc(C(F)(F)F)c2)c2cc(-c3cc(F)ccc3F)ccc2O1` [Compound 23X, (S)-((2-(6-(2,5-difluorophenyl)-4-((3-(trifluoromethyl)phenyl)-sulfonyl)-3,4-dihydro-2H-benzo[b][1,4]oxazin-2-yl)ethyl)carbamoyl)glycine], for which, on Gal4-RORγ-LBD (setting [1]), the EC50 is 500 to 5000 nM and the “Gal4-RORγ Assay Max Response” value is given as “** (The symbol “**” indicates a value in the range of greater than 90 to 150)”. Further, on RORγ-LBD, the EC50 was below 500 nM and the “TR-FRET Assay Max Response” value is “**** (The symbol “****” indicates a value greater than 200)”.
The like results for `CC(C)(C[C@H]1CN(S(=O)(=O)c2cccc(C(F)(F)F)c2)c2cc(-c3cc(F)ccc3Cl)ccc2O1)C(=O)O` [Compound 32I, (S)-3-(6-(2-chloro-5-fluorophenyl)-4-((3-(trifluoromethyl)phenyl)sulfonyl)-3,4-dihydro-2H-benzo[b][1,4]oxazin-2-yl)-2,2-dimethylpropanoic acid] were, in that order, 500 to 5000 nM, “*** (The symbol “***” indicates a value in the range of greater than 150 to 200)”, below 500 nM and “**** (The symbol “****” indicates a value greater than 200)”.
The like results for `O=c1[nH]c(OCCC[C@H]2CN(S(=O)(=O)c3cccc(C(F)(F)F)c3)c3cc(-c4cccc(C(F)(F)F)n4)ccc3O2)no1` [Compound 36C, (S)-3-(3-(4-((3-(trifluoro-methyl)phenyl)sulfonyl)-6-(6-(trifluoromethyl)-pyridin-2-yl)-3,4-dihydro-2H-benzo[b][1,4]oxazin-2-yl)propoxy)-1,2,4-oxadiazol-5(4H)-one] were, in that order, below 500 nM, “** (The symbol “**” indicates a value in the range of greater than 90 to 150)”, below 500 nM and “**** (The symbol “****” indicates a value greater than 200)”.
Turning to `CC(C)(C[C@H]1CN(S(=O)(=O)c2cccc(C(F)(F)F)c2)c2cc(-c3cc(Cl)cc(F)c3Cl)ccc2O1)C(=O)O` [Compound 32AW, (S)-3-(6-(2,5-dichloro-3-fluoro-phenyl)-4-((3-(trifluoromethyl)-phenyl)sulfonyl)-3,4-dihydro-2H-benzo[b][1,4]oxazin-2-yl)-2,2-dimethylpropanoic acid], on Gal4-RORγ-LBD (2 μM ursolic acid), the EC50 is below 500 nM and the “Gal4-RORγ Assay Max Response” value is recorded as “** (The symbol “**” indicates a value in the range of greater than 90 to 150)”. Moreover, at RORγ-LBD, the EC50 is below 500 nM and the “TR-FRET Assay Max Response” value is “** (The symbol “**” indicates a value in the range of greater than 90 to 150)”.
`C=CCC(=O)NC[C@H]1CN(S(=O)(=O)c2cccc(C(F)(F)F)c2)c2cc(-c3cc(F)cc(OC(F)F)c3)ccc2O1` [Compound 30DI, (S)-N-((6-(3-(difluoromethoxy)-5-fluorophenyl)-4-((3-(trifluoro-methyl)phenyl)sulfonyl)-3,4-dihydro-2H-benzo[b][1,4]-oxazin-2-yl)methyl)but-3-enamide]: on Gal4-RORγ-LBD (2 μM ursolic acid), the EC50 was below 500 nM and the “Gal4-RORγ Assay Max Response” value is on record as “* (The symbol “*” indicates a value in the range of 25 to 90)”. Also, at RORγ-LBD, the EC50 is below 500 nM and the “TR-FRET Assay Max Response” value is on record as “*** (The symbol “***” indicates a value in the range of greater than 150 to 200)”.
As to `CC1(C(=O)O)CC(C[C@H]2CN(S(=O)(=O)c3cccc(C(F)(F)F)c3)c3cc(-c4cccc(C(F)(F)F)n4)ccc3O2)C1` (stereo partly drawn) [Compound 60O, (1R,3s)-1-methyl-3-(((S)-4-((3-(trifluoromethyl)phenyl)-sulfonyl)-6-(6-(trifluoro-methyl)pyridin-2-yl)-3,4-dihydro-2H-benzo[b][1,4]-oxazin-2-yl)methyl)cyclobutane-1-carboxylic acid], on Gal4-RORγ-LBD (2 μM ursolic acid), the EC50 was below 500 nM and the “Gal4-RORγ Assay Max Response” value is recorded as “** (The symbol “**” indicates a value in the range of greater than 90 to 150)”. Besides, on RORγ-LBD, the EC50 was below 500 nM and the “TR-FRET Assay Max Response” value is reported as “*** (The symbol “***” indicates a value in the range of greater than 150 to 200)”.
With `O=C(O)CC[C@H]1CN(S(=O)(=O)c2cccc(C(F)(F)F)c2)c2cc(-c3ccc(F)c(C(F)(F)F)c3)ccc2O1` [Compound 2AF, (S)-3-(6-(4-fluoro-3-(trifluoromethyl)phenyl)-4-((3-(trifluoromethyl)phenyl)-sulfonyl)-3,4-dihydro-2H-benzo[b][1,4]oxazin-2-yl)propanoic acid], the EC50 is above 10000 nM on Gal4-RORγ-LBD (setting [1]) and below 500 nM at RORγ-LBD. The “TR-FRET Assay Max Response” value at RORγ-LBD is reported as “**** (The symbol “****” indicates a value greater than 200)”.
With `N#Cc1cccc(-c2ccc3c(c2)N(S(=O)(=O)c2cccc(C(F)(F)F)c2)C[C@H](CCC(=O)O)O3)c1` [Compound 2AT, (S)-3-(6-(3-cyanophenyl)-4-((3-(trifluoromethyl)phenyl)-sulfonyl)-3,4-dihydro-2H-benzo[b][1,4]oxazin-2-yl)propanoic acid], at Gal4-RORγ-LBD (setting [1]), the EC50 was in the range of 500 to 5000 nM and the “Gal4-RORγ Assay Max Response” value is on record as “** (The symbol “**” indicates a value in the range of greater than 90 to 150)”. Moreover, on RORγ-LBD, the EC50 was below 500 nM and the “TR-FRET Assay Max Response” value is given as “**** (The symbol “****” indicates a value greater than 200)”.
Take `COc1cc(Cl)cc(-c2ccc3c(c2)N(S(=O)(=O)c2cccc(C(F)(F)F)c2)C[C@H](CC(C)(C)C(=O)O)O3)c1` [Compound 32AH, (S)-3-(6-(3-chloro-5-methoxy-phenyl)-4-((3-(trifluoromethyl)-phenyl)sulfonyl)-3,4-dihydro-2H-benzo[b][1,4]oxazin-2-yl)-2,2-dimethylpropanoic acid]: at Gal4-RORγ-LBD (2 μM ursolic acid), the EC50 is below 500 nM and the “Gal4-RORγ Assay Max Response” value is “** (The symbol “**” indicates a value in the range of greater than 90 to 150)”. Further, at RORγ-LBD, the EC50 was below 500 nM and the “TR-FRET Assay Max Response” value is on record as “*** (The symbol “***” indicates a value in the range of greater than 150 to 200)”.
Consider `O=C(O)[C@H]1C[C@H](C[C@H]2CN(S(=O)(=O)c3cccc(C(F)(F)F)c3)c3cc(-c4cc(F)cc(F)c4Cl)ccc3O2)C1` [Compound 60B, (1S,3r)-3-(((S)-6-(2-chloro-3,5-difluorophenyl)-4-((3-(trifluoro-methyl)phenyl)sulfonyl)-3,4-dihydro-2H-benzo[b][1,4]oxazin-2-yl)methyl)cyclobutane-1-carboxylic acid], for which, at Gal4-RORγ-LBD (2 μM ursolic acid), the EC50 is below 500 nM and the “Gal4-RORγ Assay Max Response” value was “** (The symbol “**” indicates a value in the range of greater than 90 to 150)”. At RORγ-LBD, the EC50 is below 500 nM and the “TR-FRET Assay Max Response” value was “*** (The symbol “***” indicates a value in the range of greater than 150 to 200)”.
`O=C(O)CC[C@H]1CN(S(=O)(=O)c2cccc(C(F)(F)F)c2)c2cc(-c3cc(F)cc(C(F)(F)F)c3)ccc2O1` [Compound 2AE, (S)-3-(6-(3-fluoro-5-(trifluoromethyl)phenyl)-4-((3-(trifluoromethyl)phenyl)-sulfonyl)-3,4-dihydro-2H-benzo[b][1,4]oxazin-2-yl)propanoic acid]: on Gal4-RORγ-LBD (setting [1]), the EC50 is below 500 nM and the “Gal4-RORγ Assay Max Response” value is “*** (The symbol “***” indicates a value in the range of greater than 150 to 200)”. At RORγ-LBD, the EC50 was below 500 nM and the “TR-FRET Assay Max Response” value is recorded as “**** (The symbol “****” indicates a value greater than 200)”.
`O=C(O)CC[C@H]1CN(S(=O)(=O)c2cccc(C(F)(F)F)c2)c2cc(-c3ncc(C(F)(F)F)s3)ccc2O1` [Compound 4H, (S)-3-(4-((3-(trifluoromethyl)-phenyl)sulfonyl)-6-(5-(trifluoromethyl)thiazol-2-yl)-3,4-dihydro-2H-benzo[b][1,4]oxazin-2-yl)propanoic acid]: at Gal4-RORγ-LBD (setting [1]), the EC50 was 500 to 5000 nM and the “Gal4-RORγ Assay Max Response” value is recorded as “* (The symbol “*” indicates a value in the range of 25 to 90)”. Moreover, on RORγ-LBD, the EC50 is below 500 nM and the “TR-FRET Assay Max Response” value is on record as “*** (The symbol “***” indicates a value in the range of greater than 150 to 200)”.
In the case of `CC(C)(C[C@@H]1CN(S(=O)(=O)c2cccc(C(F)(F)F)c2)c2cc(-c3cc(F)cc(Cl)c3F)ccc2O1)C(=O)O` [Compound 32AO, (R)-3-(6-(3-chloro-2,5-difluoro-phenyl)-4-((3-(trifluoromethyl)-phenyl)sulfonyl)-3,4-dihydro-2H-benzo[b][1,4]oxazin-2-yl)-2,2-dimethylpropanoic acid], on Gal4-RORγ-LBD (2 μM ursolic acid), the EC50 lay within 500 to 5000 nM and the “Gal4-RORγ Assay Max Response” value was “* (The symbol “*” indicates a value in the range of 25 to 90)”. At RORγ-LBD, the EC50 is below 500 nM and the “TR-FRET Assay Max Response” value is on record as “** (The symbol “**” indicates a value in the range of greater than 90 to 150)”.
